Experimental findings from article PMC3634413, “Synthesis of Thieno[2,3-b]thiophene Containing Bis-Heterocycles-Novel Pharmacophores” (International Journal of Molecular Sciences, 2013) are described below.

Where two headings read alike, the source gives them in different places.

For data set [1], the target named is T1, α-Glucosidase from Saccharomyces cerevisiae (Saccharomyces cerevisiae, UniProt P53341).
T1 construct: purchased Sigma Aldrich G0660-750UN
As to the kind of experiment: In vitro α-glucosidase inhibition assay. Format: biochemical. The conditions noted are these: pH 6.8, substrate p-nitrophenyl-α-D-glucopyranoside, NA = not active, failed to show 50% or more inhibition at 500 μM or more; for IC50: read-out: IC50 ± SEM, α-Glucosidase Inhibition. How it is done: α-Glucosidase inhibition assay was performed spectrophotometrically. α-Glucosidase from Saccharomyces cerevisiae (G0660-750UN, Sigma Aldrich), was dissolved in phosphate buffer (pH 6.8, 50 mM). Test compounds were dissolved in 70% DMSO. In 96-well plates, 20 μL of test sample, 20 μL of enzyme and 135 μL of buffer were added and incubated for 15 min at 37 °C. After incubation, 25 μL of p-nitrophenyl-α-D-glucopyranoside (0.7 mM, Sigma Aldrich) was added and change in absorbance was monitored for 30 min at 400 nm. Test compound was replaced with DMSO (7.5% final) in control. Acarbose (Sigma Aldrich) was used as a standard inhibitor [25, 26].
(§1) All reactions were performed in triplicate in a final volume of 200 μL. The results were processed using SoftMax Pro 4.8 software (Molecular Devices, Sunnyvale, CA, USA) and then using MS Excel. The percentage of inhibition was calculated by the following formula:
(§2) % Inhibition=100-(OD of test sample/OD of the control)×100

The subject of the next data set is PC-3 cell line. As to the kind of experiment: Anticancer (cytotoxic) activity, MTT colorimetric assay. The data set is classed as cell-based. The conditions noted are these: compounds 1–30 μM, n = 3, read-out: IC50 ± SEM, Anticancer Activity (PC-3 Cell line). How it is done: Cytotoxic activity of compounds was evaluated in 96-well flat-bottomed microplates by using the standard MTT (3-[4,5-dimethylthiazole-2-yl]-2,5-diphenyl-tetrazolium bromide, MP) colorimetric assay. For this purpose, PC3 cells (Prostrate Cancer) were cultured in Dulbecco’s Modified Eagle Medium, supplemented with 10% of fetal bovine serum (FBS, PAA), 100 IU/mL of penicillin and 100 μg/mL of streptomycin in 75 cm^2 flasks, and kept in 5% CO2 incubator at 37 °C. Exponentially growing cells were harvested, counted with a haemocytometer, and diluted with a particular medium with 5% FBS. Cell culture with the concentration of 1 × 10^5 cells/mL was prepared and introduced (100 μL/well) into 96-well plates. After overnight incubation, medium was removed and 200 μL of fresh medium was added with different concentrations of compounds (1–30 μM). Stock solution, 20 mM of compounds were prepared in 100% DMSO, and the final concentration of DMSO at 30 μM is 0.15%. After 48 h, 200 μL MTT (0.5 mg/mL) was added to each well and incubated further for four hours. Subsequently, 100 μL of DMSO was added to each well. The extent of MTT reduction to formazan within cells was calculated by measuring the absorbance at 570 nm, using a microplate reader (SpectraMax plus, Molecular Devices, Sunnyvale, CA, USA). The cytotoxicity was recorded as concentration causing 50% growth inhibition (IC50) for PC3 cells. The percent inhibition was calculated by using the following formula:
% Inhibition=100-((mean of OD of test compound-mean of OD of negative control)/(mean of OD of positive control-mean of OD of negative control)×100).
The results (% inhibition) were processed by using SoftMax Pro software (Molecular Device, USA).

The next data set deals with T2, β-glucuronidase (Escherichia coli, UniProt P05804).
T2 construct: purchased Sigma Aldrich G7396-25KU
T2 sequence (P05804 whole entry): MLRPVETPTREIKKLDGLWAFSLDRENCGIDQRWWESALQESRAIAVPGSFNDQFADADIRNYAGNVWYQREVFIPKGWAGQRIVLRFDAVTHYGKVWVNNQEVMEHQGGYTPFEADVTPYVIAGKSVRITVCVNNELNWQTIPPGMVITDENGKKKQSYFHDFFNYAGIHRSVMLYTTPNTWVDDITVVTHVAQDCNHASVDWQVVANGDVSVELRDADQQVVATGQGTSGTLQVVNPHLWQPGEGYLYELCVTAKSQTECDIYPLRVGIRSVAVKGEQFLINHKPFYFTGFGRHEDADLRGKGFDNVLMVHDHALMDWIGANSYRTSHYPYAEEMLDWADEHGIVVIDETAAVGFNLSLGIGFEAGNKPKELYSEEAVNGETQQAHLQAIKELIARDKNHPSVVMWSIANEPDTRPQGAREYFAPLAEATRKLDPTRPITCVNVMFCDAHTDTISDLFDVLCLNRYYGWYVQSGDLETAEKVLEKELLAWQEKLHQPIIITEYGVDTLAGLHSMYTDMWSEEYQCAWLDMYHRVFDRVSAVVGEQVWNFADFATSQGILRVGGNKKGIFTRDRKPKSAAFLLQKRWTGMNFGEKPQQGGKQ
The data set can be described thus: In vitro β-glucuronidase inhibition assay. The data set is classed as biochemical. The conditions noted are these: substrate p-nitrophenyl-β-D-glucuronide, 37 °C; NA = not active, failed to show 50% or more inhibition at 500 μM or more; read-out: IC50 ± SEM, β-Glucuronidase Inhibition. How it is done:
Results are presented here as means ± standard error mean from triplicate (n = 3) observation. IC50 Values were determined by using EZ-FIT, enzyme kinetics software by Perrella Scientific, Inc., USA.
β-Glucuronidase inhibitory activity was determined by the spectrophotometric method by measuring the absorbance at 405 nm of p-nitrophenol formed from the substrate p-nitrophenyl-β-D-glucuronide N1627-250 mg (Sigma Aldrich Co., 3050 spruce street, St. Louis, MO, USA). The total reaction volume was 250 μL. The compound (5 μL) was dissolved in DMSO (100%), which became 2% in the ultimate assay (250 μL) and similar conditions were used for standard (D-saccharic acid 1,4-lactone, Sigma Aldrich Co.). The reaction mixture contained 185 μL of 0.1 M acetate buffer, 5 μL of test compound solution, 10 μL of (1U) enzyme solution (G7396-25KU, Sigma Aldrich) was incubated at 37 °C for 30 min. The plates were read on a multiplate reader (SpectraMax plus 384) at 405 nm after the addition of 50 μL of 0.4 mM p-nitrophenyl-β-D-glucuronide. All assays were performed in triplicate. IC50 Values were calculated by using EZ-Fit software (Perrella Scientific Inc., Amherst, MA, USA). These values are the mean of three independent readings.

The nature of data set [2]: DPPH radical scavenging assay (in vitro antioxidant activity). The note with it: DPPH 300 μM, 30 min at 37 °C, NA = not active, failed to show 50% or more inhibition at 500 μM or more; for IC50: read-out: IC50 ± SEM, DPPH Radical Scavenging Assay. How it is done:
Test samples were allowed to react with stable free radical, 1,1-diphenyl-2-picrylhydrazyl radical (DPPH, Wako Chemicals, Shanghai, China) for half an hour at 37 °C. Various concentrations of test samples (prepared in DMSO) were incubated with DPPH (300 μM; prepared in ethanol). After incubation, decrease in absorption was measured at 515 nm by using a microplate reader (SpectraMax plus 384). Percentage radical scavenging activity (% RSA) of samples was determined in comparison with a DMSO-treated control group. Percentage of radical scavenging activity was calculated by using the formula given in statistical analysis section.
as §1, §2
(In general: DPPH is a stable violet radical that fades when it is reduced.)

T1 sequence (P53341 whole entry): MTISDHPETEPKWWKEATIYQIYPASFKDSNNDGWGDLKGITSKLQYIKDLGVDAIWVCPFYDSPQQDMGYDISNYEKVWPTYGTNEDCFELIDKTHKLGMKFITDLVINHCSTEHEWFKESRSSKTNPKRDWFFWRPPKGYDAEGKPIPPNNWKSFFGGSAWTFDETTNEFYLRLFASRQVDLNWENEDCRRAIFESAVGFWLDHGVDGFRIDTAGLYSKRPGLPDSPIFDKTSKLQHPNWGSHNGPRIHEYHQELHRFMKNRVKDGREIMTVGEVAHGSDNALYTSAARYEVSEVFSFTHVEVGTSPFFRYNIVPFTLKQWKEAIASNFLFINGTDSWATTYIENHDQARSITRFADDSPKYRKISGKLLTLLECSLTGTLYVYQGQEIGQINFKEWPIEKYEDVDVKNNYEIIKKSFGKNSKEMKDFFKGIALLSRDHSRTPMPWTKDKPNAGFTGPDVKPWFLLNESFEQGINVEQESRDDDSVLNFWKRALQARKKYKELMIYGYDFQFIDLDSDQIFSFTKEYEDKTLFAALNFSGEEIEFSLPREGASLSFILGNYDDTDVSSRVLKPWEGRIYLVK

Take “3,3′-(3-Methyl-4-Phenylthieno[2,3-b]Thiophene-2,5-Diyl)Bis(1-Phenyl-1H-Pyrazole) [Compound 5b]”: the IC50 in data set [1] was 58.4 ± 1.2 µM; with PC-3 cell line (48 h), more than 30 µM; at β-glucuronidase, 8.7 ± 0.1 µM; in data set [2] it was 165 ± 2.8 µM.
In turn, `Cc1c(C(=O)C=CN(C)C)sc2sc(C(=O)C=CN(C)C)c(-c3ccccc3)c12` [Compound 3, 1,1′-(3-Methyl-4-Phenylthieno[2,3-b]Thiophene-2,5-Diyl)Bis(3-(Dimethylamino)Prop-2-En-1-One)] came in with a melting point of 250 °C. The IC50 with PC-3 cell line (Homo sapiens, PC-3, 48 h) was more than 30 µM.
On the same counts, the results for `Cc1c(-c2ccnc(O)n2)sc2sc(-c3ccnc(O)n3)c(-c3ccccc3)c12` [Compound 4a, 4,4′-(3-Methyl-4-Phenylthieno[2,3-b]Thiophene-2,5-Diyl)Dipyrimidin-2-Ol] are 248 °C and more than 30 µM.
`Cc1c(-c2ccnc(S)n2)sc2sc(-c3ccnc(S)n3)c(-c3ccccc3)c12` [Compound 4b, 4,4′-(3-Methyl-4-Phenylthieno[2,3-b]Thiophene-2,5-Diyl)Dipyrimidin-2-Thiol] displayed a melting point of 247 °C. The “IC50 ± SEM, α-Glucosidase Inhibition” value in data set [1] was “inactive”. For the same molecule, the IC50 in the data set on PC-3 cell line (Homo sapiens, PC-3, 48 h) is more than 30 µM. For the same molecule, on β-glucuronidase, the IC50 worked out at 1.3 ± 0.2 µM. The “IC50 ± SEM, DPPH Radical Scavenging Assay” value in data set [2] was “inactive”.
`Cc1c(-c2ccnc(N)n2)sc2sc(-c3ccnc(N)n3)c(-c3ccccc3)c12` [Compound 4c, 4,4′-(3-Methyl-4-Phenylthieno[2,3-b]Thiophene-2,5-Diyl)Dipyrimidin-2-Amine]: the melting point amounted to 246 °C.
Molecule `Cc1c(-c2cc[nH]n2)sc2sc(-c3cc[nH]n3)c(-c3ccccc3)c12` [Compound 5a, 3,3′-(3-Methyl-4-Phenylthieno[2,3-b]Thiophene-2,5-Diyl)Bis(1H-Pyrazole)] returned a melting point of 177 °C. Moreover, the IC50 in data set [1] worked out at 22 ± 0.3 µM. In the data set with PC-3 cell line (Homo sapiens, PC-3, 48 h), the IC50 came out at 22.5 ± 0.1 µM. For the same molecule, at β-glucuronidase, the IC50 turned out to be 2.3 ± 0.4 µM. In data set [2], the “IC50 ± SEM, DPPH Radical Scavenging Assay” value is given as “no antioxidant activity”.
For `Cc1c(-c2ccnc3ncnn23)sc2sc(-c3ccnc4ncnn34)c(-c3ccccc3)c12` [Compound 6, 7,7′-(3-Methyl-4-Phenylthieno[2,3-b]Thiophene-2,5-Diyl)Di-[1,2, 4]Triazolo[1,5-a]Pyrimidine], the melting point was found to be 245 °C. Further, in the data set on PC-3 cell line (Homo sapiens, PC-3, 48 h), the IC50 is more than 30 µM.
On the same counts, the results for `Cc1c(-c2ccnc3nc4ccccc4n23)sc2sc(-c3ccnc4nc5ccccc5n34)c(-c3ccccc3)c12` [Compound 7, 2,2′-(3-Methyl-4-Phenylthieno[2,3-b]Thiophene-2,5-Diyl)Bis(Benzo[4, 5]Imidazo[1,2-a] Pyrimidine)] are 245 °C and more than 30 µM.
For the molecule `O=C(O)[C@@H](O)[C@H]1OC(=O)[C@H](O)[C@H]1O` [D-Saccharic acid 1,4-lactone, D-saccharic acid 1,4-lactone, reference compound], on β-glucuronidase, the IC50 came to 45.8 µM.
As to `COc1cccc2c1C(=O)c1c(O)c3c(c(O)c1C2=O)C[C@@](O)(C(=O)CO)C[C@@H]3O[C@H]1C[C@H](N)[C@H](O)[C@H](C)O1` [Doxorubicin, reference compound], the IC50 in the data set with PC-3 cell line (Homo sapiens, PC-3, 48 h) amounted to 0.91 ± 0.1 µM.
As for `CC(=O)N[C@@H](CS)C(=O)O` [N-Acetylcysteine, reference compound], the IC50 in data set [2] was found to be 106 ± 1.1 µM.

One may read the IC50 as the point on the concentration scale where inhibition reaches its midpoint. For orientation: melting point means the temperature of the solid-liquid transition.
